Where two headings read alike, the source gives them in different places.
Assays:
[1] = system: PD1-ss+10aa/Gaussia Luciferase; assay: Dox-Induced PD1-ss-Gluc Assay; format: cell-based; details: 24 hr Dox induction, 293FRT/TO cells, read-out: 24 hr Dox Inducible PD1ssGluc 293FRT/TO: Mean IC50
In short: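 Doxycycline-induced expression of a PD1-ss+10aa/Gaussia luciferase reporter is measured in stable Flp-In 293 T-REx cells. Compound dilutions containing doxycycline are added one day after plating and incubated at 37 °C, 5% CO2. Values for unassigned stereocentres refer to stereoisomer mixtures.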

[2] = system: TNFα-FL/Gaussia Luciferase; assay: Dox Induced TNFα-FL-Gluc Assay; format: cell-based; details: for IC50: 24 hr Dox induction, 293FRT/TO cells, read-out: 24 hr Dox Inducible TNFaFLGluc 293FRT/TO: Mean IC50; for 24 hr Dox Inducible TNFaFLGluc 293FRT/TO: TNF/PD1: ratio of TNFaFLGluc IC50 to PD1ssGluc IC50
In short: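 Flp-In 293 T-REx cells stably expressing full-length TNFα (aa 1-233) fused at its C-terminus to Gaussia luciferase under tetracycline-regulated control were plated the day before assay. Compound dilutions in DMSO/media containing doxycycline were added and incubated at 37 °C, 5% CO2. Unspecified stereochemistry denotes stereoisomer mixtures.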

[3] = system: HER3-ss+4aa/Gaussia Luciferase; assay: Dox-Induced Her3-ss-Gluc Assay; format: cell-based; details: 24 hr Dox induction, 293FRT/TO cells, read-out: 24 hr Dox Inducible Her3(ss + 4)Gluc 293FRT/TO: Mean IC50
In short: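 Stable Flp-In 293 T-REx line expressing Gaussia luciferase fused to the HER3 signal sequence plus 4 amino acids under tetracycline-regulated (T-REx) control. Cells plated the day before, then treated with compound dilutions in DMSO/media containing doxycycline and incubated at 37° C., 5% CO2.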

[4] = system: IL-2-FL/Gaussia Luciferase; assay: Dox Induced IL2-FL-Gluc Assay; format: cell-based; details: for IC50: 24 hr Dox induction, 293FRT/TO cells, read-out: 24 hr Dox Inducible IL2FLGluc 293FRT/TO: Mean IC50; for 24 hr Dox Inducible IL2FLGluc 293FRT/TO: IL2/PD1: ratio of IL2FLGluc IC50 to PD1ssGluc IC50
In short: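 Flp-In 293 T-REx cells stably carrying doxycycline-inducible full-length IL-2 (aa 1-153) fused at its C-terminus to Gaussia luciferase, selected with hygromycin and blasticidin. Cells were plated the day before, then treated with compounds in DMSO/media containing doxycycline at 37° C, 5% CO2.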

[5] = system: multiple myeloma cell line NCI-H929; assay: H929 Cell Viability Assay; format: cell-based, human; details: Homo sapiens, NCI-H929, 48 h, NCI-H929 cells, Celltiter-Glo
In short: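 NCI-H929 cells, resuspended in RPMI 1640 with 10% FBS and 2 mM glutamine, were treated with compound dilutions in DMSO/media and incubated 48 hours at 37° C, 5% CO2. Viability was read by CellTiter-Glo luminescence. Compounds drawn without stereochemistry were tested as stereoisomer mixtures.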

[6] = system: multiple myeloma cell line U266B1; assay: U266 Cell Viability Assay; format: cell-based, human; details: Homo sapiens, U-266, 48 h, U266B1 cells, Celltiter-Glo
In short: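 Cells grown in RPMI 1640 with 10% FBS, 2 mM glutamine and penicillin/streptomycin were exposed to compound dilutions in DMSO/media for 48 hours at 37° C., 5% CO2. Viability was read by CellTiter-Glo luminescence. Undefined stereocentres mean data for stereoisomer mixtures.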

[7] = Liver Microsome Stability Assay (rat); details: rat liver microsomes, with NADPH, 1.0 uM compound
Protocol: (§1) Stability of a compound was assessed in the presence of liver microsomes from various sources—mouse, rat, monkey and human liver microsomes. 1.0 uM compound, 0.4% DMSO in 0.1 M Potassium Phosphate with 1.0 mg/mL liver microsomes, were incubated at 37° C. with or without 1 mM NADPH. The samples were quenched at 0, and 30 minutes.

[8] = Liver Microsome Stability Assay (mouse); details: mouse liver microsomes, with NADPH, 1.0 uM compound
Protocol: as §1

[9] = Liver Microsome Stability Assay (human); details: human liver microsomes, with NADPH, 1.0 uM compound
Protocol: as §1

[10] = Liver Microsome Stability Assay (monkey); details: monkey liver microsomes, with NADPH, 1.0 uM compound
Protocol: as §1

[11] = '<=>' given where both are I.A.

SMILES	IC50 [1]	IC50 [2]	IC50 [3]	IC50 [4]	EC50 [5]	EC50 [6]	Liver Microsome Stability (Multiple Species): Rat - % Remaining after 30 min w/NADPH [7]	Liver Microsome Stability (Multiple Species): Mouse - % Remaining after 30 min w/NADPH [8]	Liver Microsome Stability (Multiple Species): Human - % Remaining after 30 min w/NADPH [9]	Liver Microsome Stability (Multiple Species): Monkey - % Remaining after 30 min w/NADPH [10]	IC50 ([1]; mean)	IC50 ([2]; mean)	IC50 ([3]; mean)	IC50 ([4]; mean)	24 hr Dox Inducible TNFaFLGluc 293FRT/TO: TNF/PD1 [2]	24 hr Dox Inducible IL2FLGluc 293FRT/TO: IL2/PD1 [4]	24 hr Dox Inducible TNFaFLGluc 293FRT/TO: TNF/PD1 [2, 11]	24 hr Dox Inducible IL2FLGluc 293FRT/TO: IL2/PD1 [4, 11]
O=C(Nc1nc([C@H]2CCCN2c2ccccc2)cs1)c1cccn1CCC1CCOC1 (stereo partly drawn) [Compound C3, N-(4-((R)-1-phenylpyrrolidin-2-yl)thiazol-2-yl)-1-(2-(tetrahydrofuran-3-yl)ethyl)-1H-pyrrole-2-carboxamide]					16300 nM	> 25000 nM	4.35%	9.29%	16%	8.3%	1110 nM	15100 nM	2270 nM	3040 nM			13.5	2.7
N#CC1CC(Cn2cccc2C(=O)Nc2nc([C@H]3CCCN3c3ccccc3)cs2)C1 (stereo partly drawn) [Compound C106, (R)-1-((3-cyanocyclobutyl)methyl)-N-(4-(1-phenylpyrrolidin-2-yl)thiazol-2-yl)-1H-pyrrole-2-carboxamide]					> 25000 nM	> 25000 nM	3.54%	28.8%	19%	1.96%	1090 nM	19400 nM	1430 nM	2640 nM			17.7	2.4
CC(C)c1cccc2nc(/C=C/c3csc(NC(=O)c4cccn4Cc4ccnc(F)c4)n3)cn12 [Compound B73, (E)-1-((2-fluoropyridin-4-yl)methyl)-N-(4-(2-(5-isopropylimidazo[1,2-a]pyridin-2-yl)vinyl)thiazol-2-yl)-1H-pyrrole-2-carboxamide]	486 nM	> 25000 nM	> 25000 nM	> 25000 nM	> 25000 nM	> 25000 nM	3.87%	1.62%	0.81%	0.48%					>51.4	>51		
O=C(Nc1nc(C#Cc2ccccn2)cs1)c1cccn1Cc1ccncc1 [Compound E3, N-(4-(pyridin-2-ylethynyl)thiazol-2-yl)-1-(pyridin-4-ylmethyl)-1H-pyrrole-2-carboxamide]					> 25000 nM	> 25000 nM	0.35%	2.41%	0.35%	0.6%	798 nM	> 25000 nM	7180 nM	13100 nM			>31.3	16

Continued, in another order:

IC50 [1]	IC50 [2]	IC50 [3]	IC50 [4]	EC50 [5]	EC50 [6]	Liver Microsome Stability (Multiple Species): Rat - % Remaining after 30 min w/NADPH [7]	Liver Microsome Stability (Multiple Species): Mouse - % Remaining after 30 min w/NADPH [8]	Liver Microsome Stability (Multiple Species): Human - % Remaining after 30 min w/NADPH [9]	Liver Microsome Stability (Multiple Species): Monkey - % Remaining after 30 min w/NADPH [10]	IC50 ([1]; mean)	IC50 ([2]; mean)	IC50 ([3]; mean)	IC50 ([4]; mean)	SMILES	24 hr Dox Inducible TNFaFLGluc 293FRT/TO: TNF/PD1 [2]	24 hr Dox Inducible IL2FLGluc 293FRT/TO: IL2/PD1 [4]	24 hr Dox Inducible TNFaFLGluc 293FRT/TO: TNF/PD1 [2, 11]	24 hr Dox Inducible IL2FLGluc 293FRT/TO: IL2/PD1 [4, 11]
296 nM	8640 nM	670 nM	843 nM	4040 nM	5660 nM	28.3%	55%	67%	47.2%					CNCCOc1ccc(N2CCC[C@@H]2c2csc(NC(=O)c3cccn3Cc3ccnc(F)c3)n2)cc1 [Compound A103, (R)-1-((2-fluoropyridin-4-yl)methyl)-N-(4-(1-(4-(2-(methylamino)ethoxy)phenyl)pyrrolidin-2-yl)thiazol-2-yl)-1H-pyrrole-2-carboxamide]	29.2	2.9		
13.2 nM	236 nM	18.3 nM	30 nM	385 nM	> 25000 nM	7.79%	23.7%	2.86%	0.83%					CC(=O)N[C@H](C)c1ccc(N2CCC[C@@H]2c2csc(NC(=O)c3cccn3Cc3ccnc(F)c3)n2)cc1 [Compound A70, N-(4-((R)-1-(4-((R)-1-acetamidoethyl)phenyl)pyrrolidin-2-yl)thiazol-2-yl)-1-((2-fluoropyridin-4-yl)methyl)-1H-pyrrole-2-carboxamide]	18	2.3		
8.21 nM	143 nM	18.1 nM	24.3 nM	289 nM	> 25000 nM	44.7%	23.3%	49.3%	31.6%					NC(=O)Nc1ccc(N2CCC[C@@H]2c2csc(NC(=O)c3cccn3Cc3ccnc(F)c3)n2)cc1 [Compound A123, (R)-1-((2-fluoropyridin-4-yl)methyl)-N-(4-(1-(4-ureidophenyl)pyrrolidin-2-yl)thiazol-2-yl)-1H-pyrrole-2-carboxamide]	17.4	3		
13.8 nM	330 nM	25.2 nM	35.6 nM	497 nM	> 25000 nM	5.67%	39.9%	4.64%	3.56%					CC(=O)N1CCC(Oc2ccc(N3CCC[C@@H]3c3csc(NC(=O)c4cccn4Cc4ccncc4)n3)cc2)CC1 [Compound A7, (R)-N-(4-(1-(4-((1-acetylpiperidin-4-yl)oxy)phenyl)pyrrolidin-2-yl)thiazol-2-yl)-1-(pyridin-4-ylmethyl)-1H-pyrrole-2-carboxamide]	23.8	2.6		
31 nM	302 nM	39.2 nM	90.7 nM	1230 nM	> 25000 nM	55.6%	21%	13.8%	2.02%					O=C(Nc1nc([C@H]2CCCN2c2ccc(OC3CN(C(=O)C4CC4)C3)cc2)cs1)c1cccn1Cc1ccnc(F)c1 [Compound A109, (R)-N-(4-(1-(4-((1-(cyclopropanecarbonyl)azetidin-3-yl)oxy)phenyl)pyrrolidin-2-yl)thiazol-2-yl)-1-((2-fluoropyridin-4-yl)methyl)-1H-pyrrole-2-carboxamide]	9.75	2.9		
